# Results as given in the supplement of paper PMC10307832.
# Tests used:
# Test in all cases: relative viability (nuclei count vs DMSO), 5 days (fraction); higher = more cells survive
# A-427 = tested on: A-427
# Method in brief: (§1)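 Lung cancer cell lines in 1536-well plates got either a single drug or a fixed anchor-drug dose together with five library-drug doses (not always all listed) in √10 steps, by pin tool, on the day after seeding. Nuclei were counted after 5 days, and relative viability is the treated-to-vehicle ratio of nuclei counts. Values are medians of duplicate plates.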
# COR-L 105 = tested on: COR-L 105
# Method in brief: as §1
# EMC-BAC-2 = tested on: EMC-BAC-2
# Method in brief: as §1
# HARA = tested on: HARA
# Method in brief: as §1
# HCC-366 = tested on: HCC-366
# Method in brief: as §1
# HCC-827 = tested on: HCC-827
# Method in brief: as §1
# HOP-62 = tested on: HOP-62
# Method in brief: as §1
# LCLC-103H = tested on: LCLC-103H
# Method in brief: as §1
# NCI-H1395 = tested on: NCI-H1395
# Method in brief: as §1
# NCI-H1437 = tested on: NCI-H1437
# Method in brief: as §1
# NCI-H1755 = tested on: NCI-H1755
# Method in brief: as §1
# NCI-H1792 = tested on: NCI-H1792
# Method in brief: as §1
# NCI-H1915 = tested on: NCI-H1915
# Method in brief: as §1
# NCI-H2009 = tested on: NCI-H2009
# Method in brief: as §1
# NCI-H23 = tested on: NCI-H23
# Method in brief: as §1
# NCI-H460 = tested on: NCI-H460
# Method in brief: as §1
# NCI-H522 = tested on: NCI-H522
# Method in brief: as §1
# NCI-H727 = tested on: NCI-H727
# Method in brief: as §1
# SK-LU-1 = tested on: SK-LU-1
# Method in brief: as §1
# SW 1573 = tested on: SW 1573
# Method in brief: as §1
smiles,measurement,setting,value
O=c1cc(-c2cccc3c2Sc2ccccc2S3)oc(N2CCOCC2)c1 + Nc1ncn([C@H]2C[C@H](O)[C@@H](CO)O2)c(=O)n1 [Decitabine] (partner 2 µM),relative viability,A-427; first compound 0.08 µM,0.448
same,relative viability,A-427; first compound 0.253 µM,0.6
same,relative viability,A-427; first compound 0.8 µM,0.547
same,relative viability,A-427; first compound 2.53 µM,0.573
same,relative viability,A-427; first compound 8 µM,0.548
same,relative viability,COR-L 105; first compound 0.08 µM,0.603
same,relative viability,COR-L 105; first compound 0.253 µM,0.568
same,relative viability,COR-L 105; first compound 0.8 µM,0.583
same,relative viability,COR-L 105; first compound 2.53 µM,0.612
same,relative viability,COR-L 105; first compound 8 µM,0.74
same,relative viability,EMC-BAC-2; first compound 0.08 µM,0.91
same,relative viability,EMC-BAC-2; first compound 0.253 µM,1.1
same,relative viability,EMC-BAC-2; first compound 0.8 µM,1.01
same,relative viability,EMC-BAC-2; first compound 2.53 µM,1.04
same,relative viability,EMC-BAC-2; first compound 8 µM,1.12
same,relative viability,HARA; first compound 0.08 µM,0.634
same,relative viability,HARA; first compound 0.253 µM,0.52
same,relative viability,HARA; first compound 0.8 µM,0.483
same,relative viability,HARA; first compound 2.53 µM,0.555
same,relative viability,HARA; first compound 8 µM,0.49
same,relative viability,HCC-366; first compound 0.08 µM,0.324
same,relative viability,HCC-366; first compound 0.253 µM,0.486
same,relative viability,HCC-366; first compound 0.8 µM,0.363
same,relative viability,HCC-366; first compound 2.53 µM,0.273
same,relative viability,HCC-366; first compound 8 µM,0.33
same,relative viability,HCC-827; first compound 0.08 µM,0.266
same,relative viability,HCC-827; first compound 0.253 µM,0.341
same,relative viability,HCC-827; first compound 0.8 µM,0.315
same,relative viability,HCC-827; first compound 2.53 µM,0.219
same,relative viability,HCC-827; first compound 8 µM,0.344
same,relative viability,HOP-62; first compound 0.08 µM,0.206
same,relative viability,HOP-62; first compound 0.253 µM,0.221
same,relative viability,HOP-62; first compound 0.8 µM,0.187
same,relative viability,HOP-62; first compound 2.53 µM,0.228
same,relative viability,HOP-62; first compound 8 µM,0.234
same,relative viability,LCLC-103H; first compound 0.08 µM,0.721
same,relative viability,LCLC-103H; first compound 0.253 µM,0.716
same,relative viability,LCLC-103H; first compound 0.8 µM,0.646
same,relative viability,LCLC-103H; first compound 2.53 µM,0.675
same,relative viability,LCLC-103H; first compound 8 µM,0.702
same,relative viability,NCI-H1395; first compound 0.08 µM,0.711
same,relative viability,NCI-H1395; first compound 0.253 µM,0.825
same,relative viability,NCI-H1395; first compound 0.8 µM,0.736
same,relative viability,NCI-H1395; first compound 2.53 µM,0.718
same,relative viability,NCI-H1395; first compound 8 µM,0.763
same,relative viability,NCI-H1437; first compound 0.08 µM,0.573
same,relative viability,NCI-H1437; first compound 0.253 µM,0.708
same,relative viability,NCI-H1437; first compound 0.8 µM,0.628
same,relative viability,NCI-H1437; first compound 2.53 µM,0.524
same,relative viability,NCI-H1437; first compound 8 µM,0.578
same,relative viability,NCI-H1755; first compound 0.08 µM,0.716
same,relative viability,NCI-H1755; first compound 0.253 µM,0.792
same,relative viability,NCI-H1755; first compound 0.8 µM,0.762
same,relative viability,NCI-H1755; first compound 2.53 µM,0.688
same,relative viability,NCI-H1755; first compound 8 µM,0.79
same,relative viability,NCI-H1792; first compound 0.08 µM,0.531
same,relative viability,NCI-H1792; first compound 0.253 µM,0.828
same,relative viability,NCI-H1792; first compound 0.8 µM,0.45
same,relative viability,NCI-H1792; first compound 2.53 µM,0.723
same,relative viability,NCI-H1792; first compound 8 µM,0.575
same,relative viability,NCI-H1915; first compound 0.08 µM,0.259
same,relative viability,NCI-H1915; first compound 0.253 µM,0.277
same,relative viability,NCI-H1915; first compound 0.8 µM,0.271
same,relative viability,NCI-H1915; first compound 2.53 µM,0.259
same,relative viability,NCI-H1915; first compound 8 µM,0.289
same,relative viability,NCI-H2009; first compound 0.08 µM,0.375
same,relative viability,NCI-H2009; first compound 0.253 µM,0.358
same,relative viability,NCI-H2009; first compound 0.8 µM,0.38
same,relative viability,NCI-H2009; first compound 2.53 µM,0.348
same,relative viability,NCI-H2009; first compound 8 µM,0.343
same,relative viability,NCI-H23; first compound 0.08 µM,0.274
same,relative viability,NCI-H23; first compound 0.253 µM,0.314
same,relative viability,NCI-H23; first compound 0.8 µM,0.297
same,relative viability,NCI-H23; first compound 2.53 µM,0.264
same,relative viability,NCI-H23; first compound 8 µM,0.293
same,relative viability,NCI-H460; first compound 0.08 µM,0.476
same,relative viability,NCI-H460; first compound 0.253 µM,0.659
same,relative viability,NCI-H460; first compound 0.8 µM,0.462
same,relative viability,NCI-H460; first compound 2.53 µM,0.468
same,relative viability,NCI-H460; first compound 8 µM,0.669
same,relative viability,NCI-H522; first compound 0.08 µM,0.693
same,relative viability,NCI-H522; first compound 0.253 µM,0.743
same,relative viability,NCI-H522; first compound 0.8 µM,0.689
same,relative viability,NCI-H522; first compound 2.53 µM,0.66
same,relative viability,NCI-H522; first compound 8 µM,0.796
same,relative viability,NCI-H727; first compound 0.08 µM,0.704
same,relative viability,NCI-H727; first compound 0.253 µM,1.05
same,relative viability,NCI-H727; first compound 2.53 µM,0.773
same,relative viability,NCI-H727; first compound 8 µM,0.895
same,relative viability,SK-LU-1; first compound 0.08 µM,0.678
same,relative viability,SK-LU-1; first compound 0.253 µM,0.813
same,relative viability,SK-LU-1; first compound 0.8 µM,0.755
same,relative viability,SK-LU-1; first compound 2.53 µM,0.643
same,relative viability,SK-LU-1; first compound 8 µM,0.648
same,relative viability,SW 1573; first compound 0.08 µM,0.561
same,relative viability,SW 1573; first compound 0.253 µM,0.575
same,relative viability,SW 1573; first compound 0.8 µM,0.598
same,relative viability,SW 1573; first compound 2.53 µM,0.448
same,relative viability,SW 1573; first compound 8 µM,0.596
